Assay [1] addresses delta opioid receptor (DOR); rat DOR (Rattus norvegicus, UniProt P33533). Nature of the assay: [3H]diprenorphine competitive displacement, membranes. The assay is classed as binding.
For assay [2], the target named is T1, kappa opioid receptor (KOR); human KOR (Homo sapiens, UniProt P41145). The assay is described as above. In kind it is binding.
For assay [3], the target named is mu opioid receptor (MOR); rat MOR (Rattus norvegicus, UniProt P33535). Described as above. In kind it is binding.
Assay [4] has as its target T1, kappa opioid receptor (KOR); human KOR. The experiment in a line: […]GTPγS binding stimulation, membranes. In kind it is biochemical.

The structures appear in SMILES notation.

Take `Cc1cc(O)cc(C)c1C[C@H](N)C(=O)N1CCc2c(Cc3ccccc3)cccc2C1` [4a, 5-Bn Dmt-Tiq analogue 4a]: the Ki in assay [1] was 3.3 nM; in assay [2] it was 112 nM; in assay [3] it was 17 nM.

With `Cc1cc(O)cc(C)c1C[C@H](N)C(=O)N1CCc2ccc(Cc3ccccc3)cc2C1` [4c, 7-Bn Dmt-Tiq analogue 4c], the figures for the Ki in assay [1], in assay [2] and in assay [3] were 6.1 nM, 3.9 nM and 2.7 nM, respectively. This compound also showed an EC50 in assay [4] of 33 nM.

Turning to `Cc1cc(O)cc(C)c1C[C@H](N)C(=O)N1CCc2cc(Cc3ccccc3)ccc2C1` [4b, 6-Bn Dmt-Tiq analogue 4b], the Ki in assay [1] stood at 4.3 nM; in assay [2] it was 38 nM; in assay [3] it was 9.9 nM.

In the case of `Cc1cc(O)cc(C)c1C[C@H](N)C(=O)N1CCc2cccc(Cc3ccccc3)c2C1` [4d, 8-Bn Dmt-Tiq analogue 4d], the Ki amounted to 185 nM in assay [1], 26 nM in assay [2] and 4.1 nM in assay [3]. In assay [4], this compound showed an EC50 of 319 nM.
